The nature of series [1]: Spontaneous hydrolysis in Hepes buffer. It counts as physicochemical. Conditions: hepes buffer; 0.1 Hepes, 0.5M NaCl, pH 7.5, 9% Me2SO, 25° C; read-out: t1/2 for spontaneous hydrolysis. On the procedure:
^a Conditions were 0.1 Hepes, 0.5M NaCl, pH 7.5 and 9% Me2 SO at
25° C. Spontaneous hydrolysis rates were measured
spectrophotometrically by monitoring the decrease in absorbance due to th
isocoumarin ring system (wavelength 335-380 nm) using the firstorder rate

The target in series [2] is T1, bovine trypsin (Bos taurus, UniProt P00760).
T1 sequence (P00760 24-246): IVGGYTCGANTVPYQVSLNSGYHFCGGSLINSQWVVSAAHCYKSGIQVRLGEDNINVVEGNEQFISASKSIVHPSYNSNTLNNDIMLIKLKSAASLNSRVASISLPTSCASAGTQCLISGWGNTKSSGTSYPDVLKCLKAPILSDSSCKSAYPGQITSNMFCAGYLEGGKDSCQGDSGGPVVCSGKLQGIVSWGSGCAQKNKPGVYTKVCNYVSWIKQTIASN
The series is described as follows: Inactivation rate of bovine trypsin. It counts as biochemical. The note with it: Table I; pH 7.5, 25° C; [I] 1 to 12 μM; read-out: kobs/[I]. Here is the method: (§1) Inactivation rates of serine proteases by substituted isocoumarins were measured by the incubation method. An aliquot of inhibitor (25 or 50 μl) in Me2 SO was added to a buffered enzyme solution (0.01-2.3 μM) to initiate the inactivation. Aliquots (50 μl) were withdrawn at various intervals and the residual enzymatic activity was measured. Me2 SO concentration in the reaction mixture was 8-12% (v/v). 0.1 Hepes, 0.01M CaCl2, pH 7.5 buffer was utilized for trypsin and coagulation enzymes. 0.1M Hepes, 0.5M NaCl, pH 7.5 was utilized for other serine proteases. The inhibitor concentrations are shown in all the tables. Peptide thioesters or peptide nitroanilides with appropriate sequence were used as substrates for various serine proteases. All peptide thioester hydrolysis rates were measured with assay mixtures containing 4,4'-dithiodipyridine (ε324 =19800M^-1 cm^-1; Grasetti & Murray, Arch. Biochem. Biophys. 119, pp 41-49 (1967)). Peptide 4-nitroanilide nitroanilide hydrolysis was measured at 410 nm (ε410 =8800M^-1 cm^-1; Erlanger et al., Arch. Biochem. Biophys. 95, pp 271-278 (1961)). First order inactivation rate constant (kobs) were obtained from plots of ln (vt /vo) vs time, and the correlation coefficients were greater than 0.98.
(§2) ^a Conditions were as 0.1M Hepes, 0.01M CaCl2, pH 7.5 and 8-12%
(§3) Me2 SO and 25° C. Rate constants were measured by incubation
(§4) method unless otherwise noted. An aliquot of inhibitor was added to an
(§5) enzyme solution and aliquots removed with time and assayed for remaining
(§6) enzymatic activity. Firstorder rate constants, kobs were obtained
(§7) from the plots of ln(vt /vo) versus time.
(§8) ^a Inhibition rates were measured in 0.1M Hepes, 0.01M CaCl2, pH
(§9) 7.5 buffer, 8% Me2 SO and at 25° C.

Series [3] addresses T2, human plasma kallikrein (Homo sapiens, UniProt P03952).
T2 construct: human plasma kallikrein; from tissue; host or cells: human plasma (from the name)
The series is described as follows: Inactivation rate of human plasma kallikrein. It counts as biochemical. The note with it: Table I; pH 7.5, 25° C; [I] 3 to 330 μM (footnote g); read-out: kobs/[I]. Here is the method: as §1, §2, §3, §4, §5, §6, §7

Series [4] has as its target T3, human factor XIIa (Homo sapiens, UniProt P00748).
T3 construct: human factor XIIa
T3 sequence (P00748 373-615 limits assumed): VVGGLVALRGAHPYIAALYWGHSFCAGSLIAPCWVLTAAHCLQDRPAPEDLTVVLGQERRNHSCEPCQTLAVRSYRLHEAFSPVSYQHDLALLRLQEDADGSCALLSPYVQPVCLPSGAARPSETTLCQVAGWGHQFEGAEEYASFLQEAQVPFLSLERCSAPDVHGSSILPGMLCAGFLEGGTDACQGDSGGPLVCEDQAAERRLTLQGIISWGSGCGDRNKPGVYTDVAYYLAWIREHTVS
T3 sequence (P00748 20-372 partner limits assumed): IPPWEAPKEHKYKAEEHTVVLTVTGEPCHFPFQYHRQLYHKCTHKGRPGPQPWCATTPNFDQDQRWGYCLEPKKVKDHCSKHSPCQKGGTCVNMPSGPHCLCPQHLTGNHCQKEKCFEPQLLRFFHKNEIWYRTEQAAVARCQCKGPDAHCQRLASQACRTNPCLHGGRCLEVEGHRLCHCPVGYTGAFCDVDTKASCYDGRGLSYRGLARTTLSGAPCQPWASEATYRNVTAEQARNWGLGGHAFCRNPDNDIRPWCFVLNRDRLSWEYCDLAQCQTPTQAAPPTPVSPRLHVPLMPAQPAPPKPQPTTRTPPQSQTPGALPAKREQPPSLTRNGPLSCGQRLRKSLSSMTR
Briefly: Inactivation rate of human factor XIIa. It counts as biochemical. Conditions: Table I; pH 7.5, 25° C; [I] 3 to 330 μM; read-out: kobs/[I]. On the procedure: as §1, §2, §3, §4, §5, §6, §7, §8, §9

The target in series [5] is chymotrypsin (Bos taurus, UniProt P00766). Briefly: Inactivation of chymotrypsin. It is filed as biochemical, bovine. Conditions: Table IV; pH 7.5, 25° C; [I] 0.004 to 0.33 mM; read-out: kobs/[I].
The target of series [6] is T4, cathepsin G (Homo sapiens, UniProt P08311).
T4 construct: from tissue; host or cells: human leukocytes
T4 sequence (P08311 21-255): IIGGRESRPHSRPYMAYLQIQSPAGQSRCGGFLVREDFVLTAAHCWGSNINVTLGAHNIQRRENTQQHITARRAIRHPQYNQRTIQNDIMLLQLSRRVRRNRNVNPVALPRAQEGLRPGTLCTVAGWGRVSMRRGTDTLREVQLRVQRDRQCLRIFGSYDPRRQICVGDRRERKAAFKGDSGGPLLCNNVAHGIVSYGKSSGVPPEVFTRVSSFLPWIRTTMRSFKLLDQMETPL
Briefly: Inactivation of cathepsin G. It is filed as biochemical. Conditions: Table IV; for kinact/KI: pH 7.5, 25° C, [I] 0.002 to 0.35 mM, read-out: kobs/[I].
Description: (§10) Inactivation rates of serine proteases by substituted isocoumarins were measured by the incubation method. An aliquot of inhibitor (25 or 50 μl) in Me2 SO was added to a buffered enzyme solution (0.01-2.3 μM) to initiate the inactivation. Aliquots (50 μl) were withdrawn at various intervals and the residual enzymatic activity was measured. Me2 SO concentration in the reaction mixture was 8-12% (v/v). 0.1 Hepes, 0.01M CaCl2, pH 7.5 buffer was utilized for trypsin and coagulation enzymes. 0.1M Hepes, 0.5M NaCl, pH 7.5 was utilized for other serine proteases. […] Peptide thioesters or peptide nitroanilides with appropriate sequence were used as substrates for various serine proteases. All peptide thioester hydrolysis rates were measured with assay mixtures containing 4,4'-dithiodipyridine (ε324 =19800M^-1 cm^-1 ; Grasetti & Murray, Arch. Biochem. Biophys. 119, pp 41-49 (1967)). Peptide 4-nitroanilide nitroanilide hydrolysis was measured at 410 nm (ε410 =8800M^-1 cm^-1 ; Erlanger et al., Arch. Biochem. Biophys. 95, pp 271-278 (1961)). First order inactivation rate constant (kobs) were obtained from plots of ln (vt /vo) vs time, and the correlation coefficients were greater than 0.98.
(§11) ^a Inactivation rates were measured at 0.1M Hepes, 0.5 NaCl, pH 7.5,
(§12) 8-12% Me2 SO and 25° C. by incubation method.
and assayed for remaining activity.
(§13) ^a Inhibition rates were measured in 0.1M Hepes, 0.05M NaCl, pH 7.5
buffer, 8-9% Me2 SO and at 25° C.
Me2 SO, pH 7,5 and at 25° C.
(§14) ^a Inhibition was measured in 0.1M Hepes, 0.5M NaCl, pH 7.5 buffer,
(§15) 5-10% Me2 SO and at 25° C. Suc--Val--Pro--Phe--NA (0.48 mM)
(§16) was used as the substrate for chymotrypsin and cat G.

Series [7] has as its target T5, porcine pancreatic kallikrein (Sus scrofa, UniProt P00752).
T5 construct: from tissue; host or cells: porcine pancreas (from the name)
The series is described as follows: Inactivation rate of porcine pancreatic kallikrein. The note with it: Table I; pH 7.5, 25° C; [I] 0.4 to 300 μM; read-out: kobs/[I]. It counts as biochemical.

For series [8], the target named is T6, human factor XIa (Homo sapiens, UniProt P03951).
T6 construct: human factor XIa
Briefly: Inactivation rate of human factor XIa. It is filed as biochemical. Conditions: Table I; pH 7.5, 25° C; [I] 3 to 330 μM; read-out: kobs/[I]. Here is the method: as §1, §2, §3, §4, §5, §6, §7, §8, §9

Series [9] addresses sheep lung lymph tryptase. The series is described as follows: Inactivation rate of sheep lung lymph tryptase. It counts as biochemical. The note with it: Table III; pH 7.5, 25° C; [I] 10 to 460 μM. On the procedure: Inactivation rates of serine proteases by substituted isocoumarins were measured by the incubation method. An aliquot of inhibitor (25 or 50 μl) in Me2 SO was added to a buffered enzyme solution (0.01-2.3 μM) to initiate the inactivation. Aliquots (50 μl) were withdrawn at various intervals and the residual enzymatic activity was measured. […] 0.1 Hepes, 0.01M CaCl2, pH 7.5 buffer was utilized for trypsin and coagulation enzymes. […] The inhibitor concentrations are shown in all the tables. Peptide thioesters or peptide nitroanilides with appropriate sequence were used as substrates for various serine proteases.
^a Inactivation rates were measured at 0.1M Hepes, 0.5M NaCl, pH 7.5
buffer, 8% Me2 SO and 25° C.

Series [10] has as its target T7, human plasmin (Homo sapiens, UniProt P00747).
T7 construct: human plasmin; from tissue; host or cells: human plasma
Briefly: Inactivation rate of human plasmin. The note with it: Table VI; pH 7.5, 25° C; [I] 4 to 330 μM; read-out: kobs/[I]. It counts as biochemical.

Series [11] deals with T8, human leukocyte elastase (HLE) (Homo sapiens, UniProt P08246).
T8 construct: from tissue; host or cells: human leukocytes (from the name)
T8 sequence (P08246 30-267): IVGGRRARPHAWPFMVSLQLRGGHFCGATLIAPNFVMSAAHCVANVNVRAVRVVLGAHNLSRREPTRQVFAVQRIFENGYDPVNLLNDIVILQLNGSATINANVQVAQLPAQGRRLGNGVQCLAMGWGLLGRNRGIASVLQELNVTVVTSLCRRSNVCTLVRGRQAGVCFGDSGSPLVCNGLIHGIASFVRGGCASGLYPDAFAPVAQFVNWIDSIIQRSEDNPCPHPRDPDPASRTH
Briefly: Inactivation of human leukocyte elastase (HLE). It counts as biochemical. Conditions: Table IV; pH 7.5, 25° C; [I] 0.001 to 0.18 mM; read-out: kobs/[I].

For series [12], the target named is T9, porcine pancreatic elastase (PPE) (Sus scrofa, UniProt P00772).
T9 construct: from tissue; host or cells: porcine pancreas (from the name)
The series is described as follows: Inactivation of porcine pancreatic elastase (PPE). It counts as biochemical. The note with it: Table IV; pH 7.5, 25° C; [I] 0.01 to 0.51 mM; read-out: kobs/[I].
Description: as §10, §11, §12, §13
buffer, 8-9% Me2 SO and at 25° C.
^a Inhibition constants were in 0.1M Hepes, 0.5M NaCl, pH 7.5 buffer,
8-9% Me2 SO and at 25° C.
^a Inhibition rates were measured in 0.1M Hepes, 0.5M NaCl, 2.5%
Me2 SO, pH 7,5 and at 25° C.
as §14, §15, §16
^a Inhibition rates were measured in 0.1M Hepes, 0.5M NaCl, pH 7.5

The target in series [13] is T10, bovine thrombin (Bos taurus, UniProt P00735).
T10 construct: bovine thrombin
Briefly: Inactivation rate of bovine thrombin. It counts as biochemical. Conditions: Table I; pH 7.5, 25° C; [I] 0.3 to 400 μM; read-out: kobs/[I]. On the procedure: as §1, §2, §3, §4, §5, §6, §7, §8, §9

The target in series [14] is complement protein D (Homo sapiens, UniProt P00746). The series is described as follows: Inactivation rate of complement protein D. The note with it: Table II; pH 7.5, 25° C; [I] 0.05 to 1.29 mM; read-out: kobs/[I]. It counts as biochemical. On the procedure: as §1
^a Conditions were 0.1M Hepes, 0.5M NaCl, pH 7.5, 8-10% Me2 SO
and 25° C. Inactivation rates were measured by incubation method.
Enzyme concentrations were as follows: protein D, 1-9 μM; C2, 0.7-1
μM; B, 1.8 μM; Bb, 0.3-0.8 μM; Cl^- s, 0.07 μM; Cl^-

In series [15] the target is T11, bovine factor Xa (Bos taurus, UniProt P00743).
T11 construct: bovine factor Xa
The series is described as follows: Inactivation rate of bovine factor Xa. It counts as biochemical. Conditions: Table I; pH 7.5, 25° C; [I] 0.4 to 310 μM; read-out: kobs/[I].

The term inhibition denotes the share of the control response that was lost under treatment. Lower therefore signals little suppression.

Structures can show the parent of a compound that is named as a salt.

T2 sequence (P03952 391-638 limits assumed): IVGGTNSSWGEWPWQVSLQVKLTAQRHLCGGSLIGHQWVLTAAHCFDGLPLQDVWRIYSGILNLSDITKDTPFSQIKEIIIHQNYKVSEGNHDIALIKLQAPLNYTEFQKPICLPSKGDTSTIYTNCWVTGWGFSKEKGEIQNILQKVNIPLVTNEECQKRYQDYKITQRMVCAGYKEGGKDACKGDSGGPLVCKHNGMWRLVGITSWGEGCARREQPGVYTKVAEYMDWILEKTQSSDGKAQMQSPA
T2 sequence (P03952 20-390 partner limits assumed): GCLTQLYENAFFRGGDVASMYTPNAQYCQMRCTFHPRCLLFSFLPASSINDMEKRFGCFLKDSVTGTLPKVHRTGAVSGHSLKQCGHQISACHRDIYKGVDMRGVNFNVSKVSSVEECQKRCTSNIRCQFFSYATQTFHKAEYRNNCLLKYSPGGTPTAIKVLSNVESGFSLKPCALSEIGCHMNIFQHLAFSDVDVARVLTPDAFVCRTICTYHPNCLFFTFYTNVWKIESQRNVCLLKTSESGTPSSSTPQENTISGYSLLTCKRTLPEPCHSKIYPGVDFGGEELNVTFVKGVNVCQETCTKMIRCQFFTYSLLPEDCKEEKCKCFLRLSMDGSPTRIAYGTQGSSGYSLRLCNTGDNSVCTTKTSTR
T5 sequence (P00752 8-246): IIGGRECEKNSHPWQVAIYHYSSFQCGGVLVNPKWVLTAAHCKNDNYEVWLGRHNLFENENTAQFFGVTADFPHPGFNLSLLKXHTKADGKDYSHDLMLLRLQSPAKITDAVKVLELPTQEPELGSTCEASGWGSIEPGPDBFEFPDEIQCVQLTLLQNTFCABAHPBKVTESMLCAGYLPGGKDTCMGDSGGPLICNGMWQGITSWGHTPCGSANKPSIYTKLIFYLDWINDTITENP
T6 sequence (P03951 388-625 limits assumed): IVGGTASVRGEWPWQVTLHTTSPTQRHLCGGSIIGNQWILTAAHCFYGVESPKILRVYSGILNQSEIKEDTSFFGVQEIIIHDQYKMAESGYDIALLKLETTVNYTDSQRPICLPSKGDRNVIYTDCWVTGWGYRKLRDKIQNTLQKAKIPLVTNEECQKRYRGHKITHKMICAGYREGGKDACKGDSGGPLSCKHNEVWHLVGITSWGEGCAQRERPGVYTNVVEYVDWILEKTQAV
T6 sequence (P03951 19-387 partner limits assumed): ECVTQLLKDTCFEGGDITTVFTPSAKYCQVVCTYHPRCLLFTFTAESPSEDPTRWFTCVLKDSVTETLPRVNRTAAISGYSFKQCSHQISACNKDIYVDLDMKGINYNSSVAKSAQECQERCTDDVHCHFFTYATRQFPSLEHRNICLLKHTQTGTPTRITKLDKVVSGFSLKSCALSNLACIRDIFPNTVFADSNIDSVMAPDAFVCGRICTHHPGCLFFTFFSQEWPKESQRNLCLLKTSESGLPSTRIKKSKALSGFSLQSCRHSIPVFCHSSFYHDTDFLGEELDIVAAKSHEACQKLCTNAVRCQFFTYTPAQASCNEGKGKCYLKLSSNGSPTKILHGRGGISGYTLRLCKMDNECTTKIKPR
T7 sequence (P00747 581-810 limits assumed): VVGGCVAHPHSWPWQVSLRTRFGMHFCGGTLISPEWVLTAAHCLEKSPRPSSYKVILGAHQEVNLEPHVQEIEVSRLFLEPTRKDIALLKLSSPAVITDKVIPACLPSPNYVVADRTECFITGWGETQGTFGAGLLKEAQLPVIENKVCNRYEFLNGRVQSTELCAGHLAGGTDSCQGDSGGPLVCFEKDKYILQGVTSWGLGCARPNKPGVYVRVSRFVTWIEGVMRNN
T7 sequence (P00747 97-580 partner limits assumed): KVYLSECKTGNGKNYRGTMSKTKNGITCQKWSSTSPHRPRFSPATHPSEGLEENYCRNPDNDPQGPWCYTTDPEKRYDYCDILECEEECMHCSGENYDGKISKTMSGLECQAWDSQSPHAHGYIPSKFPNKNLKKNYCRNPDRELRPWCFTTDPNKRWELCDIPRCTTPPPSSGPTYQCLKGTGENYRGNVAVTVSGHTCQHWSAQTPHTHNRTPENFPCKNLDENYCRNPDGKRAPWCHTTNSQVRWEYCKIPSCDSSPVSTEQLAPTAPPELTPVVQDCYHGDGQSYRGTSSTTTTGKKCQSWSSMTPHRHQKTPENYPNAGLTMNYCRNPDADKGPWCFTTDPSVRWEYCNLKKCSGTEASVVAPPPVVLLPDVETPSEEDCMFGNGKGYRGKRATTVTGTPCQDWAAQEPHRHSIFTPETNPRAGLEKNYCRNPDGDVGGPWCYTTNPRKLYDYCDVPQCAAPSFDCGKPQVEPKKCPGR
T9 sequence (P00772 27-266): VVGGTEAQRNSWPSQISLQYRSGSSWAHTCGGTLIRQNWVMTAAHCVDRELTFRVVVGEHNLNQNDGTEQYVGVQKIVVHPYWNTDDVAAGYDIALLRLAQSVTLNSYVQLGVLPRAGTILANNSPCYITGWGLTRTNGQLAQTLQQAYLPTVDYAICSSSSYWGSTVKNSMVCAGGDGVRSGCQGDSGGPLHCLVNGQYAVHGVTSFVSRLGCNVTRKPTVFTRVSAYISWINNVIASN
T11 sequence (P00743 234-492 limits assumed): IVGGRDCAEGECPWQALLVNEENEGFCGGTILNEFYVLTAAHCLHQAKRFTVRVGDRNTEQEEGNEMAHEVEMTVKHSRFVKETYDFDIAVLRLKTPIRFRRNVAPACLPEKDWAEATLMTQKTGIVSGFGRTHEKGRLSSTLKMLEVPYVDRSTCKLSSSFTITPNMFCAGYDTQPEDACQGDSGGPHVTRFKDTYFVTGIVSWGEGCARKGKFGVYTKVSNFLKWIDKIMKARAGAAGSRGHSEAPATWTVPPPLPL
T11 sequence (P00743 41-180 partner limits assumed): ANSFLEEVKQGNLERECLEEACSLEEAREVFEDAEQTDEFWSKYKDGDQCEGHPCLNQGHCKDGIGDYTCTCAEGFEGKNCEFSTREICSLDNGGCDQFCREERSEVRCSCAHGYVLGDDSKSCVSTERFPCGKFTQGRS
Sequence of complement protein D (P00746 26-253): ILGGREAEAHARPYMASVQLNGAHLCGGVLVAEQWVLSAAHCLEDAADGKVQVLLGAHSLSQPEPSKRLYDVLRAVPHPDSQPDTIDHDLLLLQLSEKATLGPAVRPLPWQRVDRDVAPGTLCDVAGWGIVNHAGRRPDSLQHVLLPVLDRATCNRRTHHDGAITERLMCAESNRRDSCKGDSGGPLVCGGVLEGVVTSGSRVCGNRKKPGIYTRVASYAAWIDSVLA

In the case of `NCCCOc1cc2ccccc2c(=O)o1` [3-(3-aminopropoxy)isocoumarin], the half-life in series [1] amounted to 10.1 h. In addition, the kinact/KI in [2] came to 1200 M⁻¹ s⁻¹; in [3], 30 M⁻¹ s⁻¹; in series [4], 3 M⁻¹ s⁻¹; in series [5], 38 M⁻¹ s⁻¹; in series [6], 2.8 M⁻¹ s⁻¹; in [7] it was 5 M⁻¹ s⁻¹. Further, the kinact/KI in [8] was found to be 30 M⁻¹ s⁻¹; in [10], 36 M⁻¹ s⁻¹; in series [11], 47 M⁻¹ s⁻¹; in [12], 2.3 M⁻¹ s⁻¹; in series [13], 3 M⁻¹ s⁻¹. In series [9], the “kobs/[I]” value is 8.1 M⁻¹ s⁻¹.

For `CCOc1oc(=O)c2ccccc2c1Cl` [3-ethoxy-4-chloroisocoumarin, reference compound], the kinact/KI in [14] is 0.25 M⁻¹ s⁻¹.

With `COc1oc(=O)c2cc(NC(=O)[C@H](C)N)ccc2c1Cl` [7-(Alanylamino)-3-Methoxy-4-Chloroisocoumarin Hydrochloride], the kinact/KI in series [2] turned out to be 470 M⁻¹ s⁻¹; in [6] it was 20 M⁻¹ s⁻¹; in series [10], 31 M⁻¹ s⁻¹; in [11], 13500 M⁻¹ s⁻¹; in series [12], 1610 M⁻¹ s⁻¹.

Regarding `COc1oc(=O)c2cc(NC(=O)CN)ccc2c1Cl` [7-(glycylamino)-4-chloro-3-methoxyisocoumarin], the kinact/KI in series [2] worked out at 32100 M⁻¹ s⁻¹; in series [6], 4.9 M⁻¹ s⁻¹; in series [10] it was 1470 M⁻¹ s⁻¹; in series [11], 7710 M⁻¹ s⁻¹; in series [12] it was 1960 M⁻¹ s⁻¹; in [13], 51.5 M⁻¹ s⁻¹.

In the case of `COc1oc(=O)c2cc(N)ccc2c1Cl` [7-amino-3-methoxy-4-chloroisocoumarin, reference compound], the kinact/KI in series [14] was found to be 1.3 M⁻¹ s⁻¹.

Turning to `N=C(N)Nc1ccc2cc(OCCc3ccccc3)oc(=O)c2c1` [7-guanidino-3-(2-phenylethoxy)isocoumarin], in series [1], the half-life was determined as 2.33 h. Moreover, the kinact/KI is 45000 M⁻¹ s⁻¹ in [2]; 62000 M⁻¹ s⁻¹ in [3]; 690 M⁻¹ s⁻¹ in series [4]; 2600 M⁻¹ s⁻¹ in series [5]; 16000 M⁻¹ s⁻¹ in [7]; 1200 M⁻¹ s⁻¹ in series [8]. The results for the kinact/KI in series [15], in [11] and in series [13] were 11000 M⁻¹ s⁻¹, 0.9 M⁻¹ s⁻¹ and 5700 M⁻¹ s⁻¹, respectively. In [6] (not time dependent, at 0.53 mM), this molecule came in with an inhibition at 530 µM of 87%. In addition, the “kobs/[I]” value in series [9] was found to be 150 M⁻¹ s⁻¹.

On to `CCOc1cc2ccc(NC(=N)N)cc2c(=O)o1` [7-guanidino-3-ethoxyisocoumarin], for which the half-life in series [1] was 2.27 h. The kinact/KI in [2] was 20000 M⁻¹ s⁻¹; in [3] it was 44000 M⁻¹ s⁻¹; in [4] it was 1300 M⁻¹ s⁻¹; in series [5], 990 M⁻¹ s⁻¹; in series [7], 16000 M⁻¹ s⁻¹; in series [8] it was 3100 M⁻¹ s⁻¹. The kinact/KI in series [15] came to 2700 M⁻¹ s⁻¹; in series [11], 1900 M⁻¹ s⁻¹; in series [12], 86 M⁻¹ s⁻¹; in series [13], 3700 M⁻¹ s⁻¹. Moreover, the inhibition at 47 µM in series [6] (not time dependent, at 47 μM) turned out to be 87%. For the same molecule, the “kobs/[I]” value in series [9] was 150 M⁻¹ s⁻¹.

Source of the values: patent US5324648A, “Substituted isocoumarins as serine protease inhibitors and anti-inflammatory agents” (Georgia Tech Research Corporation, priority 1992, dated 1994).
